Test results: patent US11504439B2, “Radioactive compound for diagnosis of malignant melanoma and use thereof” (INDUSTRY FOUNDATION OF CHONNAM NATIONAL UNIVERSITY, priority 2017, dated 2022)

Key:
[1] = In vitro stability test in human serum; assay type: in vitro ADME; settings: 1.0 ml human serum, 37° C., 2 hours, ITLC-sg / radio TLC
Procedure: For in vitro stability test, 0.74 MBq/100 μl of [^18F] DMFB was dissolved in 1.0 ml human serum and then evaluated at 37° C. for 2 hours. The structural stability was measured by ITLC-sg. ITLC-sg (1×10 cm) was developed using MC:MeOH=10:1. The results were confirmed by radio TLC.

Melanin binding assay = experiment: Melanin binding assay
Procedure: 0.74 MBq of [^18F] DMFB was reacted with 2 mg of melanin and 10 ml of distilled water for 10, 30, 60, and 120 minutes at 37° C. with stirring. Then, centrifugation was performed at 16,800 rpm for 10 minutes, and […] of the supernatant was measured with a gamma counter. Percentages (%) of [^18F]DMFB bound to melanin were calculated based on the mixture of [^18F]DMFB and distilled water alone without melanin.

B16F10 melanoma cells = experiment: Melanoma cell uptake ratio experiment; assay type: cell-based, mouse
Procedure: B16F10 cell line, a mouse malignant melanoma cell line, was cultured in 5% CO2 in DMEM medium. Twenty-four hours prior to the experiment, cells were plated at 5×10^5 cells/well in 12-well plates and treated with 0.275 mM L-tyrosine-supplemented medium and non-supplemented medium, respectively. Then the cells were treated with 0.74 MBq of [18F]DMFB and incubated at 37° C. for 10, 30, and 60 min, respectively. After washing with PBS twice, the cells were treated with trypsin and the degree of [^18F]DMFB in the cell culture medium and cells in each time group was measured with a gamma counter, respectively. Three experiments were performed for each time group, and the results were expressed as percentage of the amount absorbed by cells versus the amount treated into the plate.

B16F10 cell line tumor [2] = experiment: Body distribution in small animal model of tumor transplantation; assay type: in vivo, nude mice
Procedure: (§1) In order to confirm the in vivo distribution of [^18F]DMFB, experiments were performed on nude mice whose tumor was grown to 100 to 150 mm^3 after about 10 days of injection of the B16F10 cell line into the right shoulder region. [^18F]DMFB was injected into the tail vein of the tumor-bearing mice at a dose of 7.4 MBq and sacrificed at 10, 30, 60, and 120 minutes, respectively to excise tumor tissue, blood and organs, and distribution of the radioactive compound was confirmed. The excised organs were measured by the gamma counter in each of the organs including blood, heart, lung, liver, spleen, stomach, intestine, kidney, pancreas, normal muscle, bone, brain, skin and eyes. The results were corrected by organ weight and expressed as a percentage of injections per gram of tissue (% ID/g).
as §1, with “In addition, in” for “In”, “[^18F]DMPY2 prepared in the example 3-2,” for “[^18F]DMFB,”, “tumors were” for “tumor was”, “[^18F]DMPY2” for “[^18F]DMFB”, “30,” for “30, 60,”, “60” for “120”

B16F10 cell line tumor [3] = experiment: Micro PET imaging using xenograft tumor mouse model; assay type: in vivo, nude mouse; settings: for signals in other organs (micro PET): 1 hour / 60 min after injection
Procedure: To confirm the in vivo dynamics of [^18F]DMFB, B16F10 cell line was injected into the right shoulder region, and about 10 days later, micro PET was performed using a nude mouse bearing tumor ranging in size of 100-150 mm^3. The nude mice were anesthetized with Isoflurane inhalation and then injected with 7.4 MBq of [^18F]DMFB into the tail vein. Static micro PET images were obtained at 10, 30, and 60 minutes after injection of the radioactive compound. Tumor uptake was determined and the images were reconstructed using 3D-ordered subset expectation maximization (3D-OSEM).
In addition, the in vivo dynamics of [^18F] DMPY2 was also analyzed by the same method as described above except that micro PET images were taken at 30 and 60 minutes after injection.

[4] = test system: B16F10 metastatic foci (lung, liver, lymph node); experiment: In vivo distribution and PET imaging in lung/liver metastatic model mice; design: species or system C57BL/6 mice; settings: 60 minutes from administering, lung metastasis model animal
Procedure: In order to examine the in vivo distribution and dynamics of [^18F]DMFB in lung/liver metastatic animal model, the present inventors divided C57BL/6 mice into two groups, one were injected with 1×10^5 cells of B16F10 cell line into the tail vein and the other were not injected with the tumor cells. After 14 days from the tumor cell inoculation, 7.4 MBq of [^18F]DMFB was injected into lung metastatic model mice and normal mice via tail vein, respectively and visualized at 60 min. Likewise, liver metastatic mice prepared by injecting 1×10^5 cells of B16F10 cell line into the tale vein were injected with 7.4 MBq of [^18F]DMFB into the tail vein. After 60 minutes of the administration, micro PET image was obtained. This liver metastatic model mice were produced among mice survived after a certain time after the induction of lung metastasis. Mice survived after the induction lung metastasis have metastasized to the lymph nodes and other organs after time elapse. […] After obtaining the images, the metastatic model mice and normal mice were sacrificed and lung and liver were excised and uptake ratio of the excised lung and liver were measured by a gamma counter. The results were corrected by organ weight and expressed as a percentage of injections per gram of tissue (% ID/g). […]

B16F10 xenograft tumor = experiment: Comparison of [^18F]DMPY2 and [^18F]FDG, micro PET in melanoma xenograft model mice; assay type: in vivo; settings: 1 hour after injection, 7.4 MBq
Procedure: (§2) The present inventors compared the imaging capabilities for melanoma and lung metastasis of the melanoma of [^18F]DMPY2 according to one embodiment of the present invention with the [^18F]FDG which has been used as a PET contrast agent for diagnosing cancer previously.
Particularly, melanoma xenograft model mice were prepared in the same manner as in Experimental Example 5, and then 7.4 MBq of [^18F]DMPY2 and [^18F]FDG were injected respectively, and systemic micro PET images were obtained at 1 hour after the injection.

[5] = test system: lung metastasis of melanoma; experiment: Comparison of [^18F]DMPY2 and [^18F]FDG, micro PET in lung metastasis model mice; assay type: in vivo; settings: 1 hour after injection, 7.4 MBq
Procedure: as §2
In addition, after lung metastasis model mice were prepared in the same manner as in Experimental Example 6, 7.4 MBq of [^18F]DMPY2 and [^18F]FDG were injected, respectively, and systemic micro PET images were obtained at 1 hour after the injection.

melanoma = settings: cited from earlier work; for detection rate for melanoma: melanoma patients
[6] = with time after injection (10, 30, 60 minutes)

CN(C)CCNC(=O)c1ccc([18F])cc1 [[^18F]DMFB, N-(2-(dimethylamino)ethyl)-4-[^18F]fluorobenzamide]
structural stability in human serum [1]: very stable even after 2 hours
binding rate to melanin (Melanin binding assay; 2 mg melanin, 37° C., 10 to 120 minutes): ≥ 85%
change of melanin binding rate over time (Melanin binding assay; after 120 minutes): did not significantly decrease
uptake in B16F10 melanoma cells (B16F10 melanoma cells; L-tyrosine not treated): hardly absorbed
uptake in B16F10 melanoma cells (B16F10 melanoma cells; medium supplemented with tyrosine (0.275 mM L-tyrosine), 10 to 60 minutes): significantly increased
radioactivity in internal organs (blood, heart, liver, lung, kidney) (B16F10 cell line tumor [2]; 10 minutes after injection, 7.4 MBq tail vein): strong radioactivity was detected
absorption ratio in stomach, liver, and kidney (B16F10 cell line tumor [2]; 1 hour after injection): relatively low
absorption ratio in tumor tissues (B16F10 cell line tumor [2]; 1 hour after injection): highest
radioactivity in the tumor tissue (B16F10 cell line tumor [2]; elapsed time of 2 hours): maintained
radioactivity in the visceral organs (B16F10 cell line tumor [2]; elapsed time of 2 hours): hardly detected
signals in other organs (micro PET) (B16F10 cell line tumor [3]): maintaining signal in other organs
radiation in the tumor tissue (micro PET) (B16F10 cell line tumor [3]; [6]): maintained
radioactivity in the liver (micro PET) (B16F10 cell line tumor [3]; [6]): decreased with time
detection of lung metastatic cancer (micro PET) [4]: possible to detect a lung metastatic cancer

CN(C)CCNC(=O)c1ccc([18F])cn1 [[^18F]DMPY2]
absorption ratio in tumor tissues (B16F10 cell line tumor [2]; 1 hour after injection): accumulated most in tumor tissue
signal in other organs such as kidney (B16F10 cell line tumor [2]; over time to 1 hour after injection): rapidly decreased
signals in other organs (micro PET) (B16F10 cell line tumor [3]): very weak
signal in melanoma tumor tissue (micro PET) (B16F10 cell line tumor [3]; 1 hour after injection): clearly observed
signal in tumor tissue (micro PET) (B16F10 xenograft tumor): clear signal only in tumor tissue
signal to noise ratio (micro PET) (B16F10 xenograft tumor): very high
signal in the metastatic lung (micro PET) [5]: very strong signal
signals / noise in other organs (micro PET) [5]: little or no noise in other organs except bladder

O=C[C@H]([18F])[C@@H](O)[C@H](O)[C@H](O)CO [[^18F]FDG, F-18-fluoro-deoxyglucose, reference compound]
background noise (micro PET) (B16F10 xenograft tumor): background noise was widespread throughout the whole body
signal in tumor tissue (micro PET) (B16F10 xenograft tumor): showed a signal in the tumor tissue
signals / noise in other organs (micro PET) [5]: stronger than the lungs
suitability for diagnosing lung metastasis of melanoma [5]: unsuitable
identification of metastatic foci with less than 1 cm in diameter (melanoma; lung, liver, and brain): failed to identify

[11CH3]SCC[C@H](N)C(=O)O [^11C-methionine, L-[methyl-^11C]methionien]
detection rate for melanoma (melanoma): extremely low

N[C@@H](Cc1cc(O)c(O)cc1[18F])C(=O)O [^18F-DOPA, 6-^18F-Fluoro-L-dihydroxyphenylalanine]
detection rate for melanoma (melanoma): extremely low

Cc1cn([C@H]2C[C@H]([18F])[C@@H](CO)O2)c(=O)[nH]c1=O [^18F-FLT, 3′-^18F-fluoro-3′-deoxy-L-thymidine]
detection rate for melanoma (melanoma): extremely low
